Results taken from patent US6897228B2, “Pyridoxine and pyridoxal analogues: new uses” (Medicure International Inc., priority 2000, dated 2005).

Key:
[1] = tested on: male Wistar rats, LAD occlusion and reperfusion; test: Rat cardiac ischemia reperfusion model; format: in vivo
Description: Seventy-nine male Wistar rats (200-300 g, Tuck, Rayleigh, Essex, U.K.) were anesthetized with thiopentone sodium (Intraval®, 120 mg/kg i.p.; Rhone-Merrieux, Essex, U.K.). The rats were tracheotomized, intubated and ventilated with a Harvard ventilator (70 strokes/min, tidal volume: 8-10 ml/kg, inspiratory oxygen concentration: 30%). Body temperature was maintained at 38±1° C. The right carotid artery was cannulated and connected to a pressure transducer (Spectramed, P23XL) to monitor mean arterial blood pressure (MAP) and heart rate (HR), which were continuously recorded on a 4-channel Grass 7D polygraph recorder (Grass, Mass., U.S.A.). The right jugular vein was cannulated for the administration of drugs. Subsequently, a lateral thoracotomy was performed and the heart was suspended in a temporary pericardial cradle. A snare occluder was placed around the left anterior descending coronary artery (LAD). After completion of the surgical procedure the animals were allowed to stabilize for 30 min before LAD ligation. The coronary artery was occluded at time 0 by tightening of the occluder. After 25 min of acute myocardial ischemia, the occluder was re-opened to allow the reperfusion for 2 h. Following the 2 h reperfusion period, the coronary artery was re-occluded and Evans Blue dye (1 ml of 2% w/v) was injected into the left ventricle, via the right carotid artery cannula, to distinguish between perfused and non-perfused area at risk (AR) sections of the heart. The Evans Blue solution stains the perfused myocardium, while the occluded vascular bed remains uncolored. The animals were killed with an overdose of anesthetic and the heart excised. It was sectioned into slices of 3-4 mm, the right ventricular wall was removed, and the AR (pink) was separated from the non-ischemic (blue) area. The AR was cut into small pieces and incubated with p-nitroblue tetrazolium (NBT, 0.5 mg/ml) for 40 min at 37° C. In the presence of intact dehydrogenase enzyme systems (viable myocardium), nitro-blue tetrazolium (NBT) forms a dark blue formazan, whilst areas of necrosis lack dehydrogenase activity and therefore fail to stain. Pieces were separated according to staining and weighed to determine the infarct size as a percentage of the weight of the AR.
The following experimental groups were studied: • (1) Sham-operation (no occlusion of the LAD) plus administration of saline (Sham-Saline, 1 ml/kg i.v. n=9). • (2) LAD-occlusion (25 min) and reperfusion (2 h) plus administration of saline (myocardial infarction (“MI”)-Saline; 1 ml/kg i.v. bolus, 5 min prior to LAD occlusion) (n=10). • (3) LAD-occlusion and reperfusion plus administration of XL (25 mg/kg i.v. bolus at 5 min prior to LAD occlusion) (n=10).
All data were expressed as mean±s.e.mean of n observations, where n represented the number of animals studied. Infarct size was analyzed by 1-factorial ANOVA, followed by a Bonferroni's post hoc test for multiple comparisons. Hemodynamic data were analyzed by 2-way ANOVA followed by a Bonferroni's test. A P-value of less than 0.05 was considered to be statistically significant (when compared to Ml-Saline).

[2] = tested on: Platelets from HIT patients; test: Heparin-induced aggregation and ATP release of platelets from HIT patients; format: cell-based, human
From the text: XL was capable of inhibiting the aggregation of platelets drawn from patients known to have heparin induced thrombocytopenia (HIT). Platelets from HIT patients were challenged with 0.5 U/ml concentration of heparin in the presence and absence of drug. […] XL is useful as an antiplatelet treatment for HIT patients who cannot be administered heparin due to the immune reaction with heparin that leads to aggregation rather than thrombolysis.
Platelets were drawn from HIT patients and challenged with heparin to a final concentration of 0.5 U/ml of low molecular weight heparin, in the presence and absence of the drug. […] ATP was detected in a lumi aggregometor (Chronolog Corp.). A luciferin-luciferase mixture was used to detect ATP release. The luciferin-luciferase mixture was previously calibrated to a known amount of ATP. Thus a spike in ATP release indicated platelet aggregation. As shown by the data, HIT patents have a large amplitude release when there is no XL compound present. When XL compound is present it inhibits this characteristic release of ATP.
Low heparin is low molecular weight heparin and high heparin is unfractionated heparin. The presence of low molecular weight heparin will cause platelet aggregation. All samples were treated with a constant final concentration of heparin; 0.5 U/ml—low and 100 U/ml high. HIT causes platelet aggregation in the Low Concentration of Heparin only, as well as a ration of >5.0 when comparing the Low/High concentration of Heparin.

[3] = 25 mg/kg i.v. bolus t = −5 mins, Baseline
[4] = 25 mg/kg i.v. bolus, Occlusion 15 mins
[5] = 25 mg/kg i.v. bolus, Occlusion 25 mins
[6] = 25 mg/kg i.v. bolus, Reperfusion 60 mins
[7] = 25 mg/kg i.v. bolus, Reperfusion 120 mins

Cc1ncc(CNc2ccc(-c3ccc(C(=N)N)cc3)cc2)c(CO)c1O [Compound XL]
HR (heart rate) [1, 3]: 443 ± 9 beats per min | MAP (mean arterial pressure) [1, 3]: 121 ± 7 mmHg | PRI (pressure rate index) [1, 3]: 54 ± 3 mmHg/min · 10^−3 | infarct size (percentage of the area at risk) ([1]; 25 mg/kg i.v. bolus, 5 minutes before regional ischemia, P<0.05, MI-Saline 48±3% of the AR): significant reduction | HR (heart rate) [1, 4]: 435 ± 11 beats per min | MAP (mean arterial pressure) [1, 4]: 119 ± 6 mmHg | PRI (pressure rate index) [1, 4]: 52 ± 3 mmHg/min · 10^−3 | HR (heart rate) [1, 5]: 460 ± 10 beats per min | MAP (mean arterial pressure) [1, 5]: 118 ± 6 mmHg | PRI (pressure rate index) [1, 5]: 55 ± 3 mmHg/min · 10^−3 | HR (heart rate) [1, 6]: 412 ± 10 beats per min | MAP (mean arterial pressure) [1, 6]: 89 ± 8 mmHg | PRI (pressure rate index) [1, 6]: 36 ± 3 mmHg/min · 10^−3 | HR (heart rate) [1, 7]: 414 ± 13 beats per min | MAP (mean arterial pressure) [1, 7]: 70 ± 7 mmHg | PRI (pressure rate index) [1, 7]: 29 ± 3 mmHg/min · 10^−3 | fall in MAP compared with MI-rats treated with Saline ([1]; 25 mg/kg i.v., P>0.05): similar | fall in PRI compared with MI-rats treated with Saline ([1]; 25 mg/kg i.v., P>0.05): similar | effect on HR ([1]; rats subjected to regional myocardial ischemia and reperfusion, P>0.05): no significant effect | effects of heparin induced thrombocytopenia (HIT) ([2]; 500 micromolar): completely suppress | aggregation of platelets from HIT patients ([2]; 500 micromolar, 0.5 U/ml heparin): completely suppress | Amplitude of ATP release spike (low Heparin) ([2]; Patient 1, 500 μM, 0.5 U/ml low heparin, without drug 363): 14 | Ratio of Low/High Heparin ([2]; Patient 1, 500 μM, without drug 42.4, HIT ratio >5.0): 1.9 | Aggregation (Low Heparin) ([2]; Patient 1, 500 μM, without drug Present): Absent | Aggregation (Low Heparin) ([2]; Patient 1, 2 mM): Absent | Amplitude of ATP release spike (low Heparin) ([2]; Patient 1, 2 mM): 28 | Ratio of Low/High Heparin ([2]; Patient 1, 2 mM): 2.7 | Ratio of Low/High Heparin ([2]; Patient 2, 500 μM, without drug 37.6): 1.6 | Amplitude of ATP release spike (low Heparin) ([2]; Patient 2, 500 μM, without drug 286): 11 | Aggregation (Low Heparin) ([2]; Patient 2, 500 μM, without drug Present): Absent | Aggregation (Low Heparin) ([2]; Patient 2, 2 mM): Absent | Amplitude of ATP release spike (low Heparin) ([2]; Patient 2, 2 mM): 12 | Ratio of Low/High Heparin ([2]; Patient 2, 2 mM): 1.6 | characteristic release of ATP of HIT platelets ([2]; heparin challenge, lumi aggregometer): inhibits
